Results on two molecules are retold here after patent US9253987B2, “Antimicrobial agents and methods of use” (Hyprotek, Inc., priority 2010, dated 2016).

This test relates to leukoplakia lesions within the oral cavity displaying invasive squamous cell carcinoma. Put plainly: Topical treatment of oral leukoplakia / squamous cell carcinoma lesion in a human subject. The test is classed as in vivo. Particulars: same human subject, before the antimicrobial agent. The source says:
In addition to the being diagnosed with chronic periodontitis, the subject developed leukoplakia lesions within the oral cavity displaying invasive squamous cell carcinoma with surrounding carcinoma-in-situ and dysplasia in the right mandibular gingival area. Visual inspection of the lesions appeared as white, translucent patches. […] Previously, the subject's dentists had attempted to treat the chronic periodontitis and leukoplakia with a succession of oral antibiotics, antifungal fluconazole and prolonged courses of chlorhexidine oral rinses, in addition to vigorous dental hygiene.
A single topical application of the antimicrobial agent of the present application in solution form was applied to the right lower mandibular gingival area while the right upper mandibular gingival area remained untreated. Visual inspection of the antimicrobial agent-treated area produced noticeable reduction in both the size and severity of the lesion within approximately 10 hours. Continued daily or twice-daily applications of the antimicrobial agent solution to the right lower mandibular gingival area over 12 days were effective to further reduce the lesion to approximately 1 mm. […] In contrast, the pathology of the untreated right upper mandibular gingival area continued to display signs of invasive squamous cell carcinoma and was only finally removed by surgery post treatment.

`[H]/N=C(\N/C(=N/[H])NCCCCCCNC(=N)NC(=N)Nc1ccc(Cl)cc1)Nc1ccc(Cl)cc1` [chlorhexidine]: the “outcome of previous therapy of chronic periodontitis and leukoplakia” value is listed as “failed significantly to improve their condition”. The value for `OC(Cn1cncn1)(Cn1cncn1)c1ccc(F)cc1F` [fluconazole] was “failed significantly to improve their condition”.
